Assay results from ChEMBL document CHEMBL1141959, “Metalloform-selective inhibition: synthesis and structure-activity analysis of Mn(II)-form-selective inhibitors of Escherichia coli methionine aminopeptidase” (Bioorg Med Chem Lett, 2005).

Assays:
[1] = target: T1, Methionine aminopeptidase (Escherichia coli K-12, UniProt P0AE18); assay: Inhibitory activity against Mn(II) form of Escherichia coli MetAP
T1 sequence (P0AE18 whole entry): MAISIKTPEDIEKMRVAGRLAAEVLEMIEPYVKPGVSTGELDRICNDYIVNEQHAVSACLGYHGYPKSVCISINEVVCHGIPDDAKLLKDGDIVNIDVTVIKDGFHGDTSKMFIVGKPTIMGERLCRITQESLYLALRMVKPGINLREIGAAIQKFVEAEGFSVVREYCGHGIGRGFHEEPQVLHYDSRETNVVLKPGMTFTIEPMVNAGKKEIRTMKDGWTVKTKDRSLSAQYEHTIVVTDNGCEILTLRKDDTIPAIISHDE

[2] = target: T1, Methionine aminopeptidase; assay: Inhibitory activity against Co(II) form of Escherichia coli MetAP
[3] = target: T1, Methionine aminopeptidase; assay: Inhibitory activity against Fe(II) form of Escherichia coli MetAP
[4] = target: T1, Methionine aminopeptidase; assay: Inhibitory activity against Ni(II) form of Escherichia coli MetAP

Row | IC50 [1] [µM] | IC50 [2] [µM] | IC50 [3] [µM] | IC50 [4] [µM] | Structure (SMILES)
1 | 33.5 | 42.5 | 33.7 | 67.5 | O=C(O)c1ccc(Cc2ccccc2)o1
2 | 44.6 | 90.5 | 138 | 89.8 | O=C(O)c1ccc(Cc2ccc(Cl)cc2)o1
3 | – | 77.1 | 58 | 5.78 | NNC(=O)c1ccc(-c2ccccc2Cl)o1
4 | 6.92 | 127 | 190 | 153 | O=C(O)c1ccc(-c2ccccc2O)o1
5 | 10 | 189 | > 200 | 190 | O=C(O)c1ccc(-c2ccccc2CO)o1
6 | 47.6 | 57.3 | 97.7 | 56.3 | N#CCc1ccc(-c2ccccc2Cl)o1
7 | 14.9 | 157 | 199 | 193 | O=C(O)c1ccc(-c2cc([N+](=O)[O-])ccc2F)o1
8 | 0.893 | 55.4 | 85.2 | 68 | O=C(O)c1ccc(-c2ccccc2CF)o1
9 | 12.5 | 56.6 | 95.8 | 94.5 | Nc1ccccc1-c1ccc(C(=O)O)o1
10 | 1.08 | 120 | 178 | 175 | O=C(O)c1ccc(-c2ccccc2[N+](=O)[O-])o1
11 | 16.3 | 188 | > 200 | 195 | O=C(O)c1ccc(-c2ccccc2)o1

Second part, the compound before the results:

Row | Structure (SMILES) | IC50 [1] [µM] | IC50 [2] [µM] | IC50 [3] [µM] | IC50 [4] [µM]
12 | CONC(=O)c1ccc(-c2ccccc2Cl)o1 | 40 | 57.5 | 178 | 51.2
13 | O=C(O)c1ccc(-c2ccccc2F)o1 | 13.6 | > 200 | > 200 | > 200
14 | O=C(O)c1ccc(-c2ccccc2C(=O)O)o1 | 23.5 | > 200 | > 200 | > 200
15 | O=C(NO)c1ccc(-c2ccccc2Cl)o1 | 0.469 | 4.61 | 0.793 | 5.9
16 | COc1ccc([N+](=O)[O-])cc1-c1ccc(C(=O)O)o1 | 0.642 | 24.1 | 36.2 | 34.5
17 | O=C(O)c1ccc(-c2cc([N+](=O)[O-])ccc2Cl)o1 | 1.32 | 44.3 | 31.1 | 38.4
18 | O=C(O)c1ccc(-c2ccc(Cl)cc2)o1 | 12.1 | 180 | > 200 | > 200
19 | CCOc1ccccc1-c1ccc(C(=O)O)o1 | 1.13 | 147 | > 200 | > 200
20 | OCc1ccc(-c2ccccc2Cl)o1 | 28.1 | 84.2 | > 200 | 55
21 | O=C(O)Cc1ccc(Cc2ccccc2Cl)o1 | 0.784 | 77.3 | 177 | 117
22 | O=C(O)c1ccc(-c2ccccc2C(F)(F)F)o1 | 0.29 | 101 | 158 | 165
23 | COCCOc1ccccc1-c1ccc(C(=O)O)o1 | 9.45 | 103 | 169 | 163
24 | NC(=O)c1ccc(-c2ccccc2Cl)o1 | 15.9 | 71.4 | > 200 | 137
25 | O=Cc1ccccc1-c1ccc(C(=O)O)o1 | 7.17 | 82.6 | 69.2 | 67.5
26 | COC(=O)c1ccccc1-c1ccc(C(=O)O)o1 | 3.47 | 160 | > 200 | 194
27 | C#CCOc1ccccc1-c1ccc(C(=O)O)o1 | 4.71 | 98.9 | 193 | 171
28 | C=CCCOc1ccccc1-c1ccc(C(=O)O)o1 | 3.65 | 93.5 | 111 | 113
29 | O=C(O)c1ccc(-c2cccc(Cl)c2)o1 | 11.7 | 199 | > 200 | > 200
30 | O=C(NO)c1ccc(Cc2ccccc2Cl)o1 | 9.84 | 119 | 122 | 107
31 | Cc1cc([N+](=O)[O-])ccc1-c1ccc(C(=O)O)o1 | 1.11 | 59.5 | 150 | 28.5
32 | O=C(O)c1ccc(Cc2ccccc2Cl)o1 | 1.22 | 158 | 199 | 191
33 | COC(=O)c1ccc(-c2ccccc2Cl)o1 | 166 | > 200 | > 200 | > 200
34 | Cc1cccc(-c2ccc(C(=O)O)o2)c1Cl | 1.71 | 187 | 196 | 188
